# Tests used:
# [1] = biological target: T1, human vasopressin V1a receptor (Homo sapiens, UniProt P37288); test: Functional assay on human vasopressin V1a receptor expressing cell line (intracellular Ca2+ fluorescence); format: cell-based; settings: 1321N1 cells, (Arg8)-vasopressin at EC80; read-out: IC50 (nM) on hV1a cell line
# [2] = biological target: human vasopressin V2 receptor (Homo sapiens, UniProt P30518); test: Human vasopressin V2 receptor binding assay on 1321N1 cell line; settings: for inhibition at 1 µM: read-out: inhibition % at 1 μM on hV2 1321N1 cell line; for Ki: 1321N1 cell line, read-out: Ki on hV2 1321N1 cell line
# Experimental: Human Vasopressin V2 Receptor Binding Assay Cells and Radioligand
# To determine the final affinity value, the results of at least two independent experiments were taken into account.
# Non-specific binding values were determined in the presence of an unlabeled 1.2×10^−6 M (Arg^8)-vasopressin. Samples were incubated in a total volume of 0.55 ml for 90 minutes at 27° C. Membrane-bound and free ligands were separated by filtration through a 0.5% polyethyleneimine-impregnated UniFilter® GF/B™. After drying the filter plates, 40 μl Microscint-20 (Packard) scintillation cocktail was added to the samples. Finally, radioactivity was measured using MicroBeta^2 Microplate Counter (Perkin Elmer).
# The radioligand displacement ability of a substance is determined in at least two independent experiments. Specific radioligand binding can be defined as the difference between total and non-specific binding in the presence of a saturation amount of the unlabeled ligand or different concentrations of the substance to be tested. The results are given as a percentage of inhibition of the specific binding achieved in the presence of the substance to be tested.
# During fitting, the asymptotes are not fixed. The Ki values (inhibition constant) are given with Cheng-Prusoff equation Ki=IC50/[1+(L/KD)] wherein [L] is the radioligand concentration used in the experiment and [KD] is the affinity of the radioactively labelled ligand for the given receptor. The KD is determined beforehand using the Scatchard curve.
# [3] = biological target: T1, human vasopressin V1a receptor; test: Human vasopressin V1a receptor binding assay; settings: 1321N1 cell membranes, [3H]vasopressin; read-out: Ki (nM) on hV1a cell line
# Method in brief: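 Ki values come from IC50 via Cheng-Prusoff (KD from prior Scatchard), averaged over at least two independent runs. Human V1a membranes were incubated with radioligand 60 minutes at 27° C., bound ligand collected by filtration; (Arg^8)-vasopressin at 1.2×10^−6 M defined non-specific binding.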
# mouse V1a receptor = mouse V1a receptor (Mus musculus, UniProt Q62463); test: Functional V1a in vivo test: inhibition of oxytocin-induced scratching behaviour; settings: mice, 10 mg/kg p.o. pretreatment
# Experimental: Functional V1a In Vivo Test
# Male mice (NMRI, ToxiCoop) weighing 18-40 g were used. Animals were kept at least 5 days after delivery, during housing and measurements they were fed and drink ad libitum. The experiments were permitted by the Local Animal Protection Committee and carried out in accordance with the European Animal Protection Directives (EU Directive 2010/63/EU).
# Animal behaviour was measured by an automated behavioral analysis system (LABORAS™). The sensors located below platforms detect the mechanical vibration generated by the movement of animal, and transform into an electrical signal (Quinn et al., J Neurosci Methods 2003, 130:83-92). After analyzing signals, the system analyzes the time spent with the following behavioral parameters: locomotion, immobility, climbing, grooming. The grooming algorithm by definition is able to measure the scratching behavioral response. During the experiment, mice were pretreated with the test substance or vehicle, and after the pretreatment period scratching-inducing compound (s.c. 0.3 mg/kg oxytocin) was administered, and then the animals were individually placed into measuring cages. […] To reduce the exploratory activity, the animals were measured after a 1-hour habituation to the cage. The behavioural parameters were compared to the parallel measured parameters of the control animals.
# The behavioural inhibitory effect of the substances was calculated with average values of parallel measured vehicle treated groups and presented as the percentage of inhibition: 0% was expressed as average value of scratching behaviour of vehicle pretreated animals (and phys. saline s.c. pretreated with vehicle), while 100% was expressed as average value of scratching of vehicle pretreated animals that received oxytocin subcutaneously. For statistical analysis one-way analysis of variance (ANOVA) with Tukey post hoc test were used.
# Chain of mouse V1a receptor (Q62463 whole entry): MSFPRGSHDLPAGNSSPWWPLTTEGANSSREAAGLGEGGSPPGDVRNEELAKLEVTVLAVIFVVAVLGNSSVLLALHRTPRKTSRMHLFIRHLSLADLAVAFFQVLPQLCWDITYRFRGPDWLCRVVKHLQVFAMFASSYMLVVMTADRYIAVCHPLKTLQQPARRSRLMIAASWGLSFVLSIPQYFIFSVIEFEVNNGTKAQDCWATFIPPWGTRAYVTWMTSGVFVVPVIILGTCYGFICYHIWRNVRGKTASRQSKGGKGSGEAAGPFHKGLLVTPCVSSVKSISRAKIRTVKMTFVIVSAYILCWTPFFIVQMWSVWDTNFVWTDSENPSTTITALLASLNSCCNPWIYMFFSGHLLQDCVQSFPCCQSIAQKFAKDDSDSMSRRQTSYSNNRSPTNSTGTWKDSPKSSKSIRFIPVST
# Chain of human vasopressin V2 receptor (P30518 whole entry): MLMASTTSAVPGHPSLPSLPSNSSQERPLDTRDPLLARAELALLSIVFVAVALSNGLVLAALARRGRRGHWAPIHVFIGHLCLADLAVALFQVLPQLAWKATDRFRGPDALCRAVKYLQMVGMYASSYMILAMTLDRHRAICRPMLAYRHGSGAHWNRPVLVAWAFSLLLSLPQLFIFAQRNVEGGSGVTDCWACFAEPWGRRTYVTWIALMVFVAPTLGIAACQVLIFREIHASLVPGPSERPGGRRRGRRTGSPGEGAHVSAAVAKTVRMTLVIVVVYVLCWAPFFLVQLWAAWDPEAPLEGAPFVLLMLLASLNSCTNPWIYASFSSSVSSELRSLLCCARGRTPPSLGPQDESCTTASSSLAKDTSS
# T1 sequence (P37288 whole entry): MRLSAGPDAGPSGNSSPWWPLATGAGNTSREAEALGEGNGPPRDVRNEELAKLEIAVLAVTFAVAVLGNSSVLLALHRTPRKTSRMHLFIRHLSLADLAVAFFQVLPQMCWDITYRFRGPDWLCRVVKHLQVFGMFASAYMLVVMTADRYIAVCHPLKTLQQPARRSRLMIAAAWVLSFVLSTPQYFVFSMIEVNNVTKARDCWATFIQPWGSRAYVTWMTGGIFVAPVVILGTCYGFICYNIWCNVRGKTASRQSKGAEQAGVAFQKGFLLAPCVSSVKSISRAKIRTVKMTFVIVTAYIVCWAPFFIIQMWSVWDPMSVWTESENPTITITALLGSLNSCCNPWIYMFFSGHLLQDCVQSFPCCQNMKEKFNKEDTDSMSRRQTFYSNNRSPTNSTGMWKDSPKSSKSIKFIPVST
Structure (SMILES),IC50 [1],inhibition at 1 µM [2],Ki [3],Ki [2],inhibition (%) of oxytocin-induced scratching behaviour response (mouse V1a receptor)
"CC(C)(C)OC(=O)NC1Cc2cc(Cl)ccc2-n2c(nnc2C2CCN(c3ccccn3)CC2)C1 (stereo not drawn) [Example 1, Tert-butyl [8-chloro-1-[1-(pyridin-2-yl)piperidin-4-yl]-5,6-dihydro-4H-[1,2,4]triazolo[4,3-a][1]benzazepin-5-yl]carbamate]",95 nM,4%,6 nM,–,–
"NC1Cc2cc(Cl)ccc2-n2c(nnc2[C@H]2CC[C@H](Oc3ccccn3)CC2)C1 (stereo partly drawn) [Example 6, 8-chloro-1-[trans-4-(pyridin-2-yloxy)cyclohexyl]-5,6-dihydro-4H-[1,2,4]triazolo[4,3-a][1]benzazepine-5-amine]",9 nM,3%,2 nM,–,–
"CS(=O)(=O)NC1Cc2cc(Cl)ccc2-n2c(nnc2[C@H]2CC[C@H](Oc3ccccn3)CC2)C1 (stereo partly drawn) [Example 18, N-{8-chloro-1-[trans-4-(pyridin-2-yloxy)cyclohexyl]-5,6-dihydro-4H-[1,2,4]triazolo[4,3-a][1]benzazepin-5-yl}methanesulfonamide]",1.6 nM,–,0.5 nM,255 nM,–
"CN(C1Cc2cc(Cl)ccc2-n2c(nnc2[C@H]2CC[C@H](Oc3ccccn3)CC2)C1)S(C)(=O)=O (stereo partly drawn) [Example 19, N-{8-chloro-1-[trans-4-pyridin-2-loxcyclohexyl]-5,6-dihydro-4H-[1,2,4]triazolo[4,3-a][1]benzazepin-5-yl}-N-methylmethanesulfonamide]",1.8 nM,–,0.4 nM,610 nM,–
"CN(C)S(=O)(=O)NC1Cc2cc(Cl)ccc2-n2c(nnc2[C@H]2CC[C@H](Oc3ccccn3)CC2)C1 (stereo partly drawn) [Example 20, N′-{8-chloro-1-[trans-4-(pyridin-2-yloxy)cyclohexyl]-5,6-dihydro-4H-[1,2,4]triazolo[4,3-a][1]benzazepin-5-yl}-N,N-dimethylsulfamide]",1 nM,–,0.7 nM,365 nM,–
"CNC1Cc2cc(Cl)ccc2-n2c(nnc2[C@H]2CC[C@H](Oc3ccccn3)CC2)C1 (stereo partly drawn) [Example 21, 8-chloro-N-methyl-1-[trans-4-(pyridin-2-yloxy)cyclohexyl]-5,6-dihydro-4H-[1,2,4]triazolo[4,3a][1]benzazepine-5-amine]",4 nM,35%,0.7 nM,–,–
FC(F)(F)c1ccc2c(c1)CC1(Cc3nnc([C@H]4CC[C@H](Oc5ccccn5)CC4)n3-2)OCCO1 [Example 47],2.3 nM,–,0.8 nM,366 nM,–
"Clc1ccc2c(c1)CC1(Cc3nnc(N4CCC(Oc5ccccn5)CC4)n3-2)OCCO1 [Example 157, 8′-chloro-1′-[4-(pyridin-2-yloxy)piperidin-1-yl]-4′H,6′H-spiro[1,3-dioxolane-2,5′-[1,2,4]triazolo[4,3-a][1]benzazepine]]",0.5 nM,–,0.1 nM,–,108%
"CO[C@]1(C)CC[C@@H](c2nnc3n2-c2ccc(Cl)cc2CC2(C3)OCCO2)CC1 [Example 198, 8′-chloro-1′-(trans-4-methoxy-4-methylcyclohexyl)-4′H,6′H-spiro[1,3-dioxolane-2,5′-[1,2,4]triazolo[4,3-a][1]benzazepine]]",0.9 nM,–,0.2 nM,–,41%
"CO[C@]1(C)CC[C@@H](c2nnc3n2-c2ccc(Cl)cc2CC2(C3)OCCCO2)CC1 [Example 204, 8′-chloro-1′-(trans-4-methoxy-4-methylcyclohexyl)-4′H,6′H-spiro[1,3-dioxane-2,5′-[1,2,4]triazolo[4,3-a][1]benzazepine]]",2.7 nM,–,0.2 nM,–,65%
"CO[C@]1(C)CC[C@H](c2nnc3n2-c2ccc(Cl)cc2CC2(C3)OCCCO2)CC1 [Example 205, 8′-chloro-1′-(cis-4-methoxy-4-methylcyclohexyl)-4′,6′H-spiro[1,3-dioxane-2,5′-[1,2,4]triazolo[4,3-a][1]benzazepine]]",2.7 nM,–,0.2 nM,–,66%

# Reference: patent US11298363B2, “Triazolobenzazepines as vasopressin V1a receptor antagonists” (RICHTER GEDEON NYRT., priority 2017, dated 2022)
